Test results: the NIST ThermoML archive (doi:10.1021/je1012586)

Assays:
[1] = wn = mass fraction of the nth substance listed; details: for surface tension liquid-gas: Pendant drop shape; for viscosity / mass density: 101 kPa, Liquid; for viscosity: Capillary tube (Ostwald / Ubbelohde) method
[2] = refractive index (Na D-line) (dimensionless); wn = mass fraction of the nth substance listed; details: 101 kPa, Liquid

C1CNCCN1 [piperazine] + O
Details	mass density, [1] [kg/m3]	refractive index, [2]	surface tension liquid-gas, [1] [mN/m]	viscosity, [1] [mPa·s]
298.15 K, w1 = 0.0174	997.75	1.33796	70.97	0.87
298.15 K, w1 = 0.0345	998.52	1.34183	69.95	0.94
298.15 K, w1 = 0.0688	1000.18	1.34759	69.83	1.08
298.15 K, w1 = 0.1035	1002.23	1.35307	69.41	1.29
303.15 K, w1 = 0.0174	996.37	1.33706	70.09	0.78
303.15 K, w1 = 0.0345	997.08	1.34024	69.18	0.85
303.15 K, w1 = 0.0688	998.69	1.34608	68.99	0.96
303.15 K, w1 = 0.1035	1000.64	1.35203	68.37	1.18
308.15 K, w1 = 0.0174	994.74	–	–	0.71
308.15 K, w1 = 0.0345	995.43	–	–	0.75
308.15 K, w1 = 0.0688	996.97	–	–	0.86
308.15 K, w1 = 0.1035	998.84	–	–	1.04
313.15 K, w1 = 0.0174	992.91	1.33604	69.11	0.68
313.15 K, w1 = 0.0345	993.59	1.33892	68.21	0.69
313.15 K, w1 = 0.0688	995.07	1.34482	68.11	0.78
313.15 K, w1 = 0.1035	996.86	1.35071	67.44	0.9
318.15 K, w1 = 0.0174	990.9	–	–	0.59
318.15 K, w1 = 0.0345	991.56	–	–	0.63
318.15 K, w1 = 0.0688	992.99	–	–	0.71
318.15 K, w1 = 0.1035	994.73	–	–	0.84
323.15 K, w1 = 0.0174	988.72	1.33476	67.93	0.54
323.15 K, w1 = 0.0345	989.35	1.33759	67.29	0.57
323.15 K, w1 = 0.0688	990.74	1.34336	67.06	0.65
323.15 K, w1 = 0.1035	992.39	1.34957	66.45	0.78
328.15 K, w1 = 0.0174	986.37	–	–	0.5
328.15 K, w1 = 0.0345	986.98	–	–	0.52
328.15 K, w1 = 0.0688	988.33	–	–	0.58
328.15 K, w1 = 0.1035	989.92	–	–	0.68
333.15 K, w1 = 0.0174	983.83	1.33348	66.99	0.46
333.15 K, w1 = 0.0345	984.46	1.33577	66.48	0.48
333.15 K, w1 = 0.0688	985.77	1.34221	66.14	0.54
333.15 K, w1 = 0.1035	987.3	1.34829	65.31	0.62
